As usually defined, the EC50 is the midpoint of the concentration-response curve.

Like-named read-outs stand apart in the source and are kept apart here.

One experiment deals with human T cells. Description: ConA-induced activation and expansion of human T cells (high-throughput screen). Particulars: for EC50: T-cell, 168 h, read-out: EC50-T cells. Format: cell-based.
Experiment [1] relates to A2780 ovarian cancer cells. Put plainly: Molecular screening of compounds on A2780 cell proliferation (resazurin fluorescence). Conditions: for EC50: Homo sapiens, A2780 cells cultured 3 days (72 hrs), from normalized percent inhibition, N/A = ambiguous curve fits or EC50 greater than highest concentration tested (25 μM). In kind it is cell-based, human. Here is the method: Plots show the normalized percent inhibition (NPI) vs. concentration in log (μM).
(§1) Cell proliferation assays—Cells were plated in 96-well plates. Compounds were added the next morning, and cell proliferation was measured 48 hrs later with the […] 96 MTS assay (Promega) according to the manufacturer's instructions. Molecular screening of compounds on A2780 cells was performed by adding compounds the morning after plating in 384-well plates and measuring proliferation 72 hrs later with resazurin fluorescence. Normalized percent inhibition (NPI) was calculated with respect to fluorescence values obtained with DMSO negative control and doxorubicin (5 μM) positive control as NPI=100%*(DMSO−compound)/(DMSO−doxorubicin).
EC50 values were calculated from normalized percent inhibition data using non-linear curve fitting in PRISM software.
In general terms: Resazurin is reduced to fluorescent resorufin, in cell work by metabolically active cells.

A further experiment relates to MCF-7 tumor cells. Description: MCF-7 cell proliferation, MTS assay. Format: cell-based, human. Conditions: 2 days, compared with T cell division indices. On the procedure: Representative results from one of two independent experiments.
as §1
On the technique in general: Tetrazolium dyes change colour on reduction, which living cells bring about.

The subject of another experiment is T cells. Description: Cytokine rescue of T cell proliferation from MEK inhibition. Particulars: IL-2 20 U/ml, IL-7 2 ng/ml, IL-15 10 ng/ml, IL-21 100 ng/ml, IL-27 50 ng/ml, ALT-803 35.7 ng/ml. Format: cell-based, human. The text has this:
Proliferation of CD8 T cells after 7 days is shown.
Proliferation of CD8 T cells is shown.
Reported are percentages of cells that proliferated with GDC0973 relative to vehicle treatment with the same cytokines after 7 days. Stains are not depicted.
T cell stimulation—For human T cell proliferation assays, peripheral blood lymphocytes were obtained by leukapheresis/elutriation and Miltenyi bead-purified and K562 cells expressing human CD32 were generated as previously described^41. K32 were γ-irradiated (100 Gy) and loaded with anti-CD3 (500 ng/ml, clone OKT3; eBioscience) plus anti-CD28 (500 ng/ml, clone 15E8; EMD Millipore) antibodies at room temperature for 10 minutes. PBMCs were labeled with CELLTRACE Violet stain (Invitrogen) according to the manufacturer's instructions and cocultured with loaded K32 cells at a 10:1 T cell to K32 ratio or activated with ConA (2 μg/ml, Sigma). Proliferation of stimulated T cells was determined 7 days later by FACS and Division Index was calculated using FlowJo™ software.

Setting [2] is: human T cells activated with ConA for 7 days, from normalized percent inhibition, N/A = ambiguous curve fits or EC50 greater than highest concentration tested (25 μM).

Turning to `CN(C)CC[C@H](CSc1ccccc1)Nc1ccc(S(=O)(=O)NC(=O)c2ccc(N3CCN(Cc4ccccc4-c4ccc(Cl)cc4)CC3)cc2)cc1[N+](=O)[O-]` [ABT737], the concentration for a half-maximal effect (EC50) in the experiment with human T cells (setting [2]) was 61 nM.
With `Cn1c(=O)n(-c2ccc(C(C)(C)C#N)cc2)c2c3cc(-c4cnc5ccccc5c4)ccc3ncc21` [BEZ235], the EC50 worked out at 21 nM in experiment [1] and 2.4 nM in the experiment on human T cells (setting [2]).
In the case of `Cc1[nH]c2ccccc2c1CCNCc1ccc(/C=C/C(=O)NO)cc1` [LBH589], the EC50 in the experiment on human T cells (setting [2]) amounted to 25 nM.
As to `C[C@]1(O)C[C@@H](c2nc(-c3ccc4ccc(-c5ccccc5)nc4c3)c3c(N)nccn32)C1` [OSI906], the “activity on A2780 cells (in words)” value in experiment [1] was “did not show any activity”. Also, the “activity on T cells (in words)” value in the experiment on human T cells (ConA-driven in vitro proliferation of human T cells) is given as “did not show any activity”. Also, the “MCF-7 tumor cell proliferation” value with MCF-7 tumor cells is reported as “reduction in tumor cell proliferation at concentrations that did not affect T cells”.
For `CC(=O)c1c(C)c2cnc(Nc3ccc(N4CCNCC4)cn3)nc2n(C2CCCC2)c1=O` [PD0332991], the concentration for a half-maximal effect (EC50) with human T cells (setting [2]) came out at 110 nM.
As to `N#CC(=C(/N)Sc1ccccc1N)/C(C#N)=C(\N)Sc1ccccc1N` [U0126], the concentration for a half-maximal effect (EC50) was 12600 nM in experiment [1] and 1920 nM in the experiment on human T cells (Homo sapiens).
For the molecule “IL-15: Recombinant human IL-15 (Novoprotein); proliferative cytokine”, the “rescue of T cell proliferation in the presence of the MEK inhibitors” value (“rescue … of the MEK inhibitors” for short) with T cells is “able to rescue”.
On to “IL-21: cytokine of the panel of T cell survival and/or proliferation cytokines”, for which the “rescue … of the MEK inhibitors” value in the experiment on T cells is recorded as “no effect”.

B1: IL-27: cytokine of the panel of T cell survival and/or proliferation cytokines (protein, UniProt Q8NEV9 29-243; Q14213 21-229, looked up)
Interleukin-27 subunit alpha: FPRPPGRPQLSLQELRREFTVSLHLARKLLSEVRGQAHRFAESHLPGVNLYLLPLGEQLPDVSLTFQAWRRLSDPERLCFISTTLQPFHALLGGLGTQGRWTNMERMQLWAMRLDLRDLQRHLRFQVLAAGFNLPEEEEEEEEEEEEERKGLLPGALGSALQGPAQVSWPQLLSTYRLLHSLELVLSRAVRELLLLSKAGHSVWPLGFPTLSPQP
Interleukin-27 subunit beta: RKGPPAALTLPRVQCRASRYPIAVDCSWTLPPAPNSTSPVSFIATYRLGMAARGHSWPCLQQTPTSTSCTITDVQLFSMAPYVLNVTAVHPWGSSSSFVPFITEHIIKPDPPEGVRLSPLAERQLQVQWEPPGSWPFPEIFSLKYWIRYKRQGAARFHRVGPIEATSFILRAVRPRARYYVQVAAQDLTDYGELSDWSLPATATMSLGK
Take B1: the “rescue … of the MEK inhibitors” value in the experiment with T cells is recorded as “no effect”.

B2: IL-7: recombinant mouse IL-7 (Peprotech) (protein, UniProt P10168 26-154, looked up)
Interleukin-7: ECHIKDKEGKAYESVLMISIDELDKMTGTDSNCPNNEPNFFRKHVCDDTKEAAFLNRAARKLKQFLKMNISEEFNVHLLTVSQGTQTLVNCTSKEEKNVKEQKKNDACFLKRLLREIKTCWNKILKGSI
In the case of B2, the “rescue … of the MEK inhibitors” value with T cells was “able to rescue”.

Values taken from patent US10258625B2, “Method for treatment of metastatic and refractory cancers and tumors with an inducer that overcomes inhibition of T cell proliferation” (The Wistar Institute of Anatomy and Biology, priority 2015, dated 2019).
